The text below walks through data of patent US6476263B1, “Compounds for inhibiting β-amyloid peptide release and/or its synthesis” (Elan Pharmaceuticals, Inc., priority 1996, dated 2002).

Residues, ends and D or L forms follow the SMILES beside them.

With `COC(=O)C(NC(=O)[C@H](C)NC(=O)Cc1cc(F)cc(F)c1)c1ccc(OC)cc1` (stereo partly drawn) [Example 64, Methyl N-[N-(3,5-Difluorophenylacetyl)-L-alaninyl]-2-amino-2-(4-methoxyphenyl)acetate], the melting point was 170 to 174 °C. Next, `CCOC(=O)CNC(=O)[C@H](C)NC(=O)Cc1cccc([N+](=O)[O-])c1` [Example 77, N-[N-(3-Nitrophenylacetyl)-L-alaninyl]glycine Ethyl Ester]: 164 to 165 °C; `COC(=O)CNC(=O)[C@H](C)NC(=O)Cc1ccccc1` [Example 206, N-[N-(Phenylacetyl)-L-alaninyl]glycine Methyl Ester] (HELM PEPTIDE1{[O=C(Cc1ccccc1)[*:2]].A.G.[CO[*:1]]}$$$$V2.0): 152 to 153.5 °C. Take `COC(=O)[C@@H](NC(=O)[C@H](Cc1ccccc1)NC(=O)[C@H](C)NC(=O)Cc1cc(F)cc(F)c1)c1ccccc1` [Example 109, N-[N-[N-(3,5-Difluorophenylacetyl)-L-alaninyl]-L-phenylalaninyl]-L-phenylglycine Methyl Ester]: the melting point is 203 to 207 °C. `COC(=O)[C@@H](NC(=O)[C@H](CC(C)C)NC(=O)Cc1cc(F)cc(F)c1)c1ccccc1` [Example 196, N-[N-(3,5-Difluorophenylacetyl)-L-leucinyl]-L-phenylglycine Methyl Ester] had a melting point of 178.4 °C.

Take `CCOC(=O)[C@H](C)NC(=O)[C@H](C)NC(=O)Cc1cc(F)cc(F)c1` [Example 85, N-[N-(3,5-Difluorophenylacetyl)-L-alaninyl]-L-alanine Ethyl Ester]: the melting point was 197 to 199 °C. Consider `O=C(CC1CCCC1)N[C@H](C(=O)N[C@H](CO)c1ccccc1)c1ccccc1` [Example 247, N-[N-(Cyclopentaneacetyl)-L-phenylglycinyl]-L-phenylglycinol], for which the melting point came to 201.4 °C.

`COC(=O)[C@H](Cc1c[nH]c2ccccc12)NC(=O)[C@H](C)NC(=O)Cc1cc(F)cc(F)c1` [Example 106, N-[N-(3,5-Difluorophenylacetyl)-L-alaninyl]-L-tryptophan Methyl Ester] yielded a melting point of 191 to 193 °C.

Take `COC(=O)[C@@H](NC(=O)[C@H](Cc1ccccc1)NC(=O)Cc1cc(F)cc(F)c1)c1ccccc1` [Example 197, N-[N-(3,5-Difluorophenylacetyl)-L-phenylalaninyl]-L-phenylglycine Methyl Ester]: the melting point turned out to be 188.3 °C. Next, `COC(=O)[C@H](CCc1ccccc1)NC(=O)[C@H](C)NC(=O)Cc1cc(F)cc(F)c1` [Example 44, Methyl N-[N-(3,5-Difluorophenylacetyl)-L-alaninyl]-(S)-2-amino-4-phenylbutanoate]: 147 to 149.5 °C; `C[C@H](NC(=O)Cc1cc(F)cc(F)c1)C(=O)N[C@@H](Cc1ccccc1)C(=O)OCc1ccccc1` [Example 37, N-[N-(3,5-Difluorophenylacetyl)-L-alaninyl]-L-phenylalanine Benzyl Ester]: 170 to 171 °C; `CC(C)(C)OC(=O)[C@@H](NC(=O)[C@@H](NC(=O)CC1CC1)c1ccccc1)c1ccccc1` [Example 264, N-[N-(Cyclopropylacetyl)-L-phenylglycinyl]-L-phenylglycine tert-Butyl Ester]: 187.5 °C. In turn, `CCCC[C@H](NC(=O)[C@H](C)NC(=O)Cc1cc(F)cc(F)c1)C(=O)O` [Example 327, N-[N-(3,5-Difluorophenylacetyl)-L-alaninyl]-L-norleucine] gave a melting point of 158.5 to 160.5 °C. Next, `CCOC(=O)C(NC(=O)[C@H](C)NC(=O)Cc1cc(F)cc(F)c1)c1ccc2sccc2c1` (stereo partly drawn) [Example 177, Ethyl N-[N-(3,5-Difluorophenylacetyl)-L-alaninyl]-2-amino-2-(benzothiophen-5-yl)acetate]: 126.5 to 127.5 °C.

Molecule `CC(C)COC(=O)[C@H](C)NC(=O)[C@@H](NC(=O)[C@@H](NC(=O)CC(C)C)C(C)C)c1ccccc1` [Example 83, N-[N-[N-(Isovaleryl)-L-valinyl]-L-phenylglycinyl]-L-alanine iso-butyl Ester] gave a melting point of 217 to 221 °C.

Consider `COC(=O)[C@H](Cc1ccccc1)NC(=O)[C@H](C)NC(=O)Cc1cccc([N+](=O)[O-])c1` [Example 75, N-[N-(3-Nitrophenylacetyl)-L-alaninyl]-L-phenylalanine Methyl Ester], for which the melting point was 154 to 158 °C. Then `CCOC(=O)[C@H](C)NC(=O)[C@@H](NC(=O)Cc1ccccc1)c1ccccc1` [Example 108, N-[N-(Phenylacetyl)-L-phenylglycinyl]-L-alanine Ethyl Ester] (HELM PEPTIDE1{[O=C(Cc1ccccc1)[*:2]].[Phg].A.[CCO[*:1]]}$$$$V2.0), with 208 to 210 °C.

`CCOC(=O)[C@H](CO)NC(=O)[C@H](C)NC(=O)Cc1cccc([N+](=O)[O-])c1` [Example 117, N-[N-(3-Nitrophenylacetyl)-L-alaninyl]-L-serine Ethyl Ester] displayed a melting point of 179 to 181 °C.

For the molecule `COC(=O)[C@H](Cc1ccc(OCC(=O)OC(C)(C)C)cc1)NC(=O)[C@H](C)NC(=O)Cc1cc(F)cc(F)c1` [Example 14, N-[N-(3,5-Difluorophenylacetyl)-L-alaninyl]-L-4-[(tert-butyloxycarbonyl)methoxy]phenylalanine Methyl Ester], the melting point fell in the range of 116 to 119 °C.

In the case of `CCOC(=O)[C@H](Cc1ccc(O)cc1)NC(=O)[C@H](C)NC(=O)Cc1cccc([N+](=O)[O-])c1` [Example 81, N-[N-(3-Nitrophenylacetyl)-L-alaninyl]-L-tyrosine Ethyl Ester], the melting point is 117 to 119 °C. Next, `COC(=O)[C@H](Cc1c[nH]cn1)NC(=O)[C@H](C)NC(=O)Cc1cc(F)cc(F)c1` [Example 2, N-[N-(3,5-Difluorophenylacetyl)-L-alaninyl]-L-histidine Methyl Ester]: 195 to 197 °C; `CCOC(=O)C(NC(=O)[C@H](C)NC(=O)Cc1cc(F)cc(F)c1)c1ccncc1` (stereo partly drawn) [Example 66, Ethyl N-[N-(3,5-Difluorophenylacetyl)-L-alaninyl]-2-amino-2-(4-pyridyl)acetate]: 175 to 181 °C.

`COC(=O)[C@H](CC(C)C)NC(=O)[C@H](C)NC(=O)Cc1ccccc1` [Example 201, N-[N-(Phenylacetyl)-L-alaninyl]-L-leucine Methyl Ester] (HELM PEPTIDE1{[O=C(Cc1ccccc1)[*:2]].A.L.[CO[*:1]]}$$$$V2.0) showed a melting point of 102.5 to 105 °C. Then `COC(=O)[C@@H](NC(=O)[C@H](C)NC(=O)Cc1cc(F)cc(F)c1)c1ccccc1` [Example 111, N-[N-(3,5-Difluorophenylacetyl)-L-alaninyl]-L-phenylglycine Methyl Ester], with 198 to 200 °C.

Molecule `COC(=O)[C@@H](NC(=O)[C@H](C)NC(=O)Cc1ccccc1)C(C)C` [Example 207, N-[N-(Phenylacetyl)-L-alaninyl]-L-valine Methyl Ester] (HELM PEPTIDE1{[O=C(Cc1ccccc1)[*:2]].A.V.[CO[*:1]]}$$$$V2.0) showed a melting point of 112 to 115 °C. For the molecule `CCOC(=O)C(NC(=O)[C@H](C)NC(=O)Cc1cc(F)cc(F)c1)C1CCCCC1` (stereo partly drawn) [Example 126, Ethyl N-[N-(3,5-Difluorophenylacetyl)-L-alaninyl]-2-amino-2-cyclohexylacetate], the melting point was 146 to 150 °C.

Usually melting point stands for the temperature of the solid-liquid transition.
